Patent US20210353579A1, “HIGH PENETRATION COMPOSITIONS AND USES THEREOF” (Techfields Pharma Co., Ltd., priority 2006, published 2021)
In brackets after ≈: the same amount, converted by molar mass.

Key:
[1] = Plasma levels after transdermal administration to hairless mice; format: in vivo; settings: for t, time to peak plasma level after parent compound: parent compound administered (time when taken orally); for Peak plasma concentration after parent compound: parent compound administered, hairless mice
Protocol: Tested compounds (20% solution or suspension in 1 mL isopropanol) are administered transdermally to the skin of intact hairless mice. The plasma levels of the parent compounds are determined by HPLC.

in vivo = settings: rat
Protocol: The acute toxicity of the prodrug compounds and parent compounds are measured by LD50 of rat.

human skin tissue = settings: human, 20 %, pH 7.4
[2] = Solubility in water / aqueous solubility of HPPs and parent drugs; settings: water
rats = test: Antipyretic activity, E. coli suspension as pyrogen; format: in vivo; settings: in °C (unit assumed)
Protocol: Rats are administered with sterilized E. coli suspension as a pyrogen. Each group of rats are administered with a prodrug compounds or parent compounds at a dosage specified below. The prodrug compounds are administered either orally or transdermally. The parent compounds are administered orally.

mice = test: Analgesic activity, acetic acid writhing; format: in vivo; settings: 30 min before acetic acid; for inhibition at 50 mg/kg / inhibition at 100 mg/kg: Mus musculus, po, read-out: % (rate of writhing inhibition)
Protocol: The prodrug compounds are administered either transdermally or orally. The parent compounds are administered orally. The number of writhing that occurred when mice are administered the acetic acid solution are counted, and the rate of inhibition based on the control group which was not pretreated with any test compounds is calculated. […] The A group is the control group.
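For LD50 in this document: acute toxicity in rats expressed as LD50, determined for both prodrugs and their parent compounds.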

SMILES | t, time to peak plasma level after parent compound [1] [h] | Peak plasma concentration after parent compound [1] [mg/L] | LD50 (in vivo) [mg/kg] | In vitro penetration rate (apparent flux), parent compounds (human skin tissue) [μg/cm^2/h] | solubility [2] [µg/mL] | body temperature, t = 0 min (rats; 100 mg/kg orally) | body temperature, t = 90 min (rats; 100 mg/kg orally) | body temperature, t = 180 min (rats; 100 mg/kg orally) | body temperature, t = 270 min (rats; 100 mg/kg orally) | body temperature, t = 0 min (rats; 150 mg/kg orally) | body temperature, t = 90 min (rats; 150 mg/kg orally) | body temperature, t = 180 min (rats; 150 mg/kg orally) | body temperature, t = 270 min (rats; 150 mg/kg orally) | No. of Writhing (mice; 50 mg/kg orally) | No. of Writhing (mice; 100 mg/kg orally) | inhibition at 50 mg/kg (mice; 50 mg/kg orally) [%] | inhibition at 100 mg/kg (mice; 100 mg/kg orally) [%]
COc1ccc2c(c1)c(CC(=O)OCC(=O)O)c(C)n2C(=O)c1ccc(Cl)cc1 [Acemetacin, acemetacin] | 1 to 2 | 0.1 | 24 | 10 | 100 (≈ 240 µM) |  |  |  |  |  |  |  |  |  |  |  | 
C=C(C)CNc1ccc(C(C)C(=O)O)cc1 (stereo not shown) [Alminoprofen, alminoprofen] | 2 to 4 | 10 | 2400 | 30 | 100 (≈ 456 µM) |  |  |  |  |  |  |  |  |  |  |  | 
Nc1c(CC(=O)O)cccc1C(=O)c1ccccc1 [Amfenac, amfenac] | 1 to 2 | 0.1 | 310 | 10 | 200 (≈ 783 µM) |  |  |  |  |  |  |  |  |  |  |  | 
CC(=O)Oc1ccccc1C(=O)O [Aspirin, acetylsalicylic acid, reference compound] | ~2 | 0.1 | 1500 | <1 | 10 (≈ 55.5 µM) | 37.22 ± 0.05 | 36.80 ± 0.05 | 36.85 ± 0.05 | 36.81 ± 0.05 | 37.30 ± 0.06 | 36.50 ± 0.05 | 36.59 ± 0.05 | 36.55 ± 0.05 | 18.2 | 13.2 | 45 | 60
CC(C(=O)O)c1ccc2oc(-c3ccc(Cl)cc3)nc2c1 (stereo not shown) [Benoxaprofen, benoxaprofen] | 2 to 4 | 10 | 800 | 40 | 100 (≈ 331 µM) |  |  |  |  |  |  |  |  |  |  |  | 
CC(C(=O)O)c1ccc2c(c1)[nH]c1ccc(Cl)cc12 (stereo not shown) [Carprofen, carprofen] | 2 to 4 | 10 | 400 | 40 | 100 (≈ 365 µM) |  |  |  |  |  |  |  |  |  |  |  | 
O=C(O)C1CCc2cc(C3CCCCC3)c(Cl)cc21 (stereo not shown) [Clidanac, clidanac] | 2 to 4 | 10 | 35 | 40 | 100 (≈ 359 µM) |  |  |  |  |  |  |  |  |  |  |  | 
CCc1cccc2c3c([nH]c12)C(CC)(CC(=O)O)OCC3 (stereo not shown) [Etodolac, etodolac] | 1 to 2 | 0.1 | 460 | 10 | 100 (≈ 348 µM) |  |  |  |  |  |  |  |  |  |  |  | 
O=C(O)Cc1ccccc1Oc1ccc(Cl)cc1Cl [Fenclofenac, fenclofenac] | 1 to 2 | 0.1 | 2280 | 10 | 100 (≈ 337 µM) |  |  |  |  |  |  |  |  |  |  |  | 
O=C(O)C(Cl)c1ccc(C2CCCCC2)c(Cl)c1 (stereo not shown) [Fenclorac, fenclorac] | 2 to 4 | 10 | 430 | 40 | 200 (≈ 696 µM) |  |  |  |  |  |  |  |  |  |  |  | 
O=C(O)c1ccccc1Nc1cccc(C(F)(F)F)c1 [Flufenamic acid, flufenamic acid] | 2 to 4 | 0.1 | 720 | 10 | < 100 |  |  |  |  |  |  |  |  |  |  |  | 
CC(C)Cc1ccc(C(C)C(=O)O)cc1 (stereo not shown) [Ibuprofen, 2-(ρ-isobutylphenyl) propionic acid, reference compound] | 1 to 2 | 2 | 1500 | 50 |  | 37.25 ± 0.06 | 36.83 ± 0.05 | 36.80 ± 0.08 | 36.78 ± 0.07 | 37.35 ± 0.09 | 36.59 ± 0.07 | 36.53 ± 0.06 | 36.55 ± 0.05 | 17.2 | 13.1 | 50 | 62
COc1ccc2c(c1)c(CC(=O)O)c(C)n2C(=O)c1ccc(Cl)cc1 [Indomethacin, indomethacin] | 1 to 2 | 0.1 | 13 | 10 | 100 (≈ 279 µM) |  |  |  |  |  |  |  |  |  |  |  | 
CC(C(=O)O)c1ccc(N2Cc3ccccc3C2=O)cc1 (stereo not shown) [Indoprofen, indoprofen] | 2 to 4 | 10 | 700 | 30 | 100 (≈ 355 µM) |  |  |  |  |  |  |  |  |  |  |  | 
O=C(O)Cc1cn(-c2ccccc2)nc1-c1ccc(Cl)cc1 [Lonazolac, lonazolac, reference compound] | 1 to 2 | 0.1 | 1000 |  | 100 (≈ 320 µM) |  |  |  |  |  |  |  |  |  |  |  | 
Cc1cccc(Nc2ccccc2C(=O)O)c1C [Mefenamic acid, mefenamic acid] | 2 to 4 | 0.1 | 600 | 10 | < 100 |  |  |  |  |  |  |  |  |  |  |  | 
O=C(O)c1cccnc1Nc1cccc(C(F)(F)F)c1 [Niflumic acid, niflumic acid] | 2 to 4 | 0.1 | 650 | 10 | < 100 |  |  |  |  |  |  |  |  |  |  |  | 
CN1C(C(=O)Nc2ccccn2)=C(O)c2ccccc2S1(=O)=O [Piroxicam, piroxicam] | 2 to 4 | 0.1 | 360 | <1 | < 100 |  |  |  |  |  |  |  |  |  |  |  | 
CC(C(=O)O)c1ccc2c(c1)Cc1cccnc1O2 (stereo not shown) [Pranoprofen, pranoprofen] | 2 to 4 | 10 | 450 | 30 | 200 (≈ 783 µM) |  |  |  |  |  |  |  |  |  |  |  | 
Cc1ccc(C(=O)c2ccc(CC(=O)O)n2C)cc1 [Tolmetin, tolmetin] | 1 to 2 | 0.1 | 350 | 10 | 200 (≈ 777 µM) |  |  |  |  |  |  |  |  |  |  |  | 
Cc1cc(CC(=O)O)n(C)c1C(=O)c1ccc(Cl)cc1 [Zomepirac, zomepirac] | 1 to 2 | 0.1 | 27 | 10 | 200 (≈ 686 µM) |  |  |  |  |  |  |  |  |  |  |  | 
